According to article PMC7179958 (CPT: Pharmacometrics & Systems Pharmacology, 2020):

How the values were obtained:
[1] = Static R value for clinical TrDDI (FDA guidance); set-up: species or system human; conditions: for R value, static model: eltrombopag perpetrator (75 mg), pitavastatin victim, Eq. 2, FDA cut‐off 1.1
OATP1B1 and OATP1B3 = conditions: OATP1B1 and OATP1B3, in vitro; cited from earlier work
human hepatocytes [2] = conditions: cited from earlier work
[3] = cited from earlier work
[4] = Plasma protein binding and blood:plasma ratio (literature); format: in vitro ADME; conditions: blood; fu.pl.P/Bl:Pl, Eq. 15, from literature values 3, 24
human hepatocytes [5] = experiment: Uptake of pitavastatin and eltrombopag in cryopreserved human hepatocytes (oil spin method), comeasurement, micro‐rate constant mechanistic model; format: in vitro ADME
Procedure: (§1) Human hepatocytes were obtained from BioIVT (Brussels, Belgium; lot number: LYB; 10 donor LiverPool (8 Caucasians, 1 African American, and 1 Hispanic) and thawed according to supplier guidelines in Leibovitz L15 medium. Hepatocytes were kept on ice prior to use and were used within 3 hours of defrosting.
(§2) Cells were separated using an oil spin method similar to the literature. ^11 , ^17 After separation, the tubes were frozen on dry ice and the bottom layer was cut off.
(§3) A dilution factor of 100 was used to scale from pmol/mL/1 × 10^5 cells to nmol/mL/1 × 10^6 cells.
(§4) Passive rate constants for movement into and out of the cell (k f.X and k bX, respectively) as well as uptake transporter‐mediated rate constants for association to the transporter (k aX) and dissociation (k dX) and translocation (k tX) from the transporter into the medium and cell, respectively. […] The sets of ODEs for all the models (models 1–4; Table 1 ) tested for structural identifiability and used for parameter estimation are included in the Supplemental Material .
(§5) Parameter estimation was conducted within Monolix 2018 R2 (Lixoft, Antony, France) for each concentration and experiment as an individual data set, where to ensure positivity, a log‐normal distribution was assumed for each parameter, with a proportional residual error model for the observations.
(§6) Hepatocyte Incubations. […] Eltrombopag was dissolved in DMSO to give 30 µmol/mL, then diluted 333-fold to 90 nmol/mL in Leibovitz L15 medium. […] Briefly, 0.5 mL microtubes (12049877, Thermo-Fisher Scientific, Gothenburg, Sweden) layered with 15 µL of 4 % cesium chloride onto which 140 µL of 8:2 silicone oil: mineral oil, with oil red O was added. Samples were taken by transferring 100 µL of hepatocyte suspension into the microtube and spun for 15 s in a Minispin centrifuge (Eppendorf, Horsholm, Denmark), during which time the hepatocytes passed through the oil into the cesium chloride bottom layer. The tubes were then frozen on dry ice and the bottom layer cut off once frozen into a 1 mL deep well plate (260252, Thermo-Fisher Scientific, Gothenburg, Sweden).
(§7) Sample Extraction. 50 µL of water suitable for UPLC (MilliQ ELGA water, Merck-Millipore, Solna, Sweden) and 150 µL of stop solution (50:50 MeOH:MeCN, containing 0.8 % formic acid and 4 pmol/mL 5,5-diethyl-1,3-diphenyl-2-iminobarbituric acid as internal standard) were added to the frozen samples of the cut-off tube bottoms. Samples were mixed on a plate shaker for 1 h and then stored at – 80 °C overnight. Prior to analysis, samples were defrosted and mixed for 30 min before centrifugation of the plates at 4000 g for 20 min at 4 °C. Samples were transferred to a conical bottomed 96 well plate for analysis (249944, Thermo-Fisher Scientific, Gothenburg, Sweden) and diluted 1:1 with MilliQ ELGA water.
(§8) Mechanistic Modeling. […] An estimate for the total amount of transporters (To) can be obtained during the mechanistic modeling process (9, 10), and therefore Tf can be replaced using the conservation law during parameter estimation:
(§9) Parameter estimation for all model were conducted within the Monolix suite 2018 R2 (Lixoft, Antony, France) where to ensure positivity, a log-normal distribution was assumed for each parameter in the candidate models, together with a proportional residual error model for the observations.

[6] = as above; format: in vitro ADME; conditions: human; model 1; conditional mode (minimum‐maximum) for 1 × 10^6 cells
Procedure: as §1, §2, §3, §4, §5, §6, §7, §8, §9

[7] = Fraction unbound in hepatocytes, Rapid Equilibrium Dialysis (RED) device; format: in vitro ADME; conditions: human, heat inactivated hepatocytes
Procedure: Fraction Unbound in Hepatocytes. The estimation of the fraction unbound in hepatocytes at equilibrium can be obtained using multiple techniques: heat inactivated hepatocytes (3); linear regression obtained using the logD7.4 (4); parameter estimation (1, 3, 5, 6) or as separate binding rate constants determined experimentally (7). […] The RED device works with low volumes across a medium chamber (500 µL, white) and incubation chamber containing the hepatocytes (300 µL, red), and as such has been reported to even out the non-specific binding (NSB) between the membrane and wells, thereby improving recovery (8). The free fraction in the incubation (fu.inc) is calculated as:
fu.inc= [medium chamber] Whiteincubation chamber(Red) . (Eq.S1)
The amount of non-specific binding (NSB) to the labware is important to understand the recovery from the RED device experiment to evaluate the reliability of fu.inc: […]

[8] = Semimechanistic PBPK model simulation in simulated healthy volunteers; set-up: species or system human
Text: Uptake is inhibited by the opposing drug in X 3 via the respective uptake concentration at half of the maximum uptake velocity (K m.up.X) shown as the inhibition constant (K I.up). Passive movement of drug into and out of the liver is through clearances P dif.X and P def.X, respectively. Both drugs are cleared through biliary excretion (CLbi.X) into the gallbladder (X 5), and into X 2 where they can be reabsorbed.
The micro‐rate constants for transporter‐mediated uptake and passive uptake were scaled to macro‐rate constants (see Table 2 ) and then empirically scaled up to the human body (83 kg, healthy adult; ^23 see Table 2 ).
The ODE PBPK model (see Figure 1 for schematic and Supplemental Material for the set of ODEs) was developed using desolve ^27 in R‐studio (v1.1.463, R‐Studio Inc., Boston, MA) running R‐project version 3.6.0 ^28 and was similar to that used for eltrombopag and rosuvastatin. ^5 All figures in this article were generated either within Inkscape (0.93, Inkscape.org, Boston, MA) or cowplot, ggplot2, ^29 , ^30 extrafont, ^31 and Cairo. ^32

[9] = human hepatocytes over 70 seconds
[10] = model 1, conditional mode (minimum‐maximum) for 1 × 10^6 cells
[11] = model 1 micro‐rate constants, conditional mode (minimum‐maximum) for 1 × 10^6 cells

SMILES: O=C(O)C[C@H](O)C[C@H](O)/C=C/c1c(C2CC2)nc2ccccc2c1-c1ccc(F)cc1 [pitavastatin, pitavastatin calcium]
- R value, static model [1]: 1.07
- R value, static model ([1]; listed as Pitavastatin): 1.06–1.07
- estimated I in.max ([1]; pitavastatin as perpetrator, clinical dose 1–4 mg): 0.5 to 3 nmol/mL
- fraction transported (OATP1B1 and OATP1B3): 0.78
- K m.up.P (literature) (human hepatocytes [2]): 1.4 to 2 µM
- P dif.P (literature) (human hepatocytes [2]): 0.4–13 µL/min/1 × 10^6 cells
- V max.up.P (literature) (human hepatocytes [2]): 65–354 pmol/min/1 × 10^6 cells
- k aP (literature) (human hepatocytes [2]; [9]): 7.4 (51%) /nmol/min/1 × 10^6 cells
- k dP (literature) (human hepatocytes [2]; [9]): 6.3 /min/1 × 10^6 cells
- k tP (literature) (human hepatocytes [2]; [9]): 4.3 (85%) /min/1 × 10^6 cells
- P def.P (literature, micro‐rate constants) (human hepatocytes [2]; ref Grandjean et al. 11): 0.89 (27%) µL/min/1 × 10^6 cells
- biliary elimination of pitavastatin [3]: 53%
- AUC0−∞ (literature) ([3]; pitavastatin only, oral 1 mg, converted to blood concentration, mean ± SD): 68 ± 49 ng·h/mL
- Cmax ([3]; pitavastatin only, oral 1 mg, healthy volunteers, converted to blood concentration, mean ± SD): 38.8 ± 21.9 ng/mL
- tmax (h) ([3]; pitavastatin only, oral 1 mg, healthy volunteers): 1 (0.5–1) h
- V c.X, volume of the central compartment ([3]; pitavastatin, total blood volume): 5820. Total blood volume [ ^23 ] mL
- fraction unbound [4]: 0.009
- F T.X, fraction transported (human hepatocytes [5]; CLup.X/(CLup.X+Pdif.X), Eq. 4): 0.96 (0.94–0.98)
- effect of pitavastatin on cellular eltrombopag (human hepatocytes [5]; experimental data, except at a pitavastatin incubation of 30–100 nmol/mL): No effect
- K m.up.X or K I.up.X (human hepatocytes [5]; from micro‐rate constants, Eq. 7): 9,525 ng/mL
- P def.X (human hepatocytes [5]; k bX scaled to a clearance): 0.62 (0.55‐0.67) µL/min/1 × 10^6 cells
- P dif.X (human hepatocytes [5]; k fX scaled to a clearance): 0.55 (0.46–0.61) µL/min/1 × 10^6 cells
- k bX, passive rate constant out of the cell (human hepatocytes [5]; [10]): 0.21 (0.18–0.22) /min
- k fX, passive rate constant into the cell (human hepatocytes [5]; [10]): 5.5 × 10^−4 (4.6 × 10^−4–6.1 × 10^−4) /min
- k aX, transporter association rate constant (human hepatocytes [5]; [11]): 0.17 (0.14–0.25) /nmol/min
- k dX, transporter dissociation rate constant (human hepatocytes [5]; [11]): 2.2 (1.97–2.37) /min
- k tX, transporter translocation rate constant (human hepatocytes [5]; [11]): 1.65 (1.57–1.74) /min
- V max.up..X, maximum uptake velocity (human hepatocytes [5]; scaled to whole liver, Eq. 6): 3.0 × 10^7 ng/min/liver
- P dif.X, passive diffusion into the cell (human hepatocytes [5]; scaled to whole liver, Eq. 8): 118 mL/min/liver
- P def.X, passive diffusion out of the cell (human hepatocytes [5]; scaled to whole liver, Eq. 9): 104 mL/min/liver
- V max.up (human hepatocytes [5]; transporter rate constants transformed, Eq. 6): 302 (177–639) pmol/min/1 × 10^6 cells
- K m.up (human hepatocytes [5]; transporter rate constants transformed, Eq. 7): 22.1 (16.7–25.5) nmol/mL
- k el [6]: 0.00367 s⁻¹
- fraction unbound ([7]; RED device, overnight, pitavastatin 0.3, 10 and 100 nmol/ml, eltrombopag 30 nmol/ml, read-out: f u.inc, fraction unbound in the incubation): 0.9
- fraction unbound ([7]; pitavastatin, estimated from RED f u.inc, Eq. 16, read-out: f u.L.X, fraction unbound in the liver): 0.026
- recovery ([7]; RED device, read-out: analytical recovery): 55%
- CLmet.X, metabolic clearance ([8]; PBPK model value, Eqs. 10 and 11): 93 mL/min/liver
- CLbi.X, biliary clearance ([8]; PBPK model value, Eqs. 12 and 13): 165 mL/min/liver
- clearance ([8]; human, plasma and urine, PBPK model value, Eq. 14): 12 mL/min
- K a.X, first‐order absorption rate constant ([8]; pitavastatin, from mean residence time PO and IV, Eq. 5): 0.07 min⁻¹
